Assay results taken from patent US5164295A, “Method for identifying amyloid protein-extracellular matrix protein affinity altering compounds” (The Upjohn Company, priority 1991, dated 1992).

Experiments:
[1] = biological target: T1, HSPG binding to AAP695 /s (Homo sapiens, UniProt P05067); test: Effect of test compounds on intact HSPG binding to immobilized AAP695 /s (ELISA); details: for HSPG binding, % of control: AAP695
T1 construct: maintained the entire extracellular portion of the AAP; made in house; host or cells: insect cells (recombinant baculovirus)
Method: (§1) The assay comprised immobilizing AAP695 /s which was then exposed to free HSPG in the absence or presence of test compounds. Other aspects of the assay included exposing free HSPG to either immobilized AAP751 /s, or AAP770 /s, each in the absence or presence of test compounds. The assay was also performed with fibronectin as the immobilized protein in order to provide a positive control. In each case, a series of concentrations of HSPG and test compounds was used. Additionally, to determine whether or not the carbohydrate moiety of HSPG was involved in the binding to immobilized components, the carbohydrate moiety of HSPG was removed and assays were performed using the carbohydrate-free HSPG core protein. The test compounds used in experiments described here include heparin, dextran sulfate, chondroitin sulfate, dermatan sulfate, fibronectin, gelatin, bovine serum albumin (BSA), Ca^++ (CaCl2), Mg^++ (MgCl2), Mn^++ (MnCl2), Co^++ (Co(NO3)2), and Zn^++ (ZnCl2).
(§2) The assay used in studying the interaction between HSPG and protein ligands was an ELISA technique. Briefly, polystyrene micro-titer plates (Linbro, Flow Lab Inc.) were coated with a 100 μl solution, containing 1 μg/ml of the protein of interest (one of the three forms of AAP or fibronectin) in 20 mM NaHCO3 buffer pH 9.6. After incubation overnight at 4° C., the plates were rinsed with 0.15M NaCl, 20 mM Tris-Cl pH 7.5 (TBS). The plates were then incubated with 150 μl of 1% BSA in TBS for 2 hours at 37° C. to block the residual hydrophobic surface on the wells. After rinsing with TBS containing 0.05% (w/v) Tween 20 (TBS-Tween), 100 μl of various concentrations of HSPG in TBS-Tween were added. The plates were left overnight at 4° C., to permit maximum binding of HSPG to the coated proteins. The plates were then washed extensively and incubated for 2 hours at 37° C., with 100 μl of anti-HSPG diluted in TBS-Tween containing 0.1% BSA. The plates were washed again and incubated for another 2 hours with 100 μl of goat anti-rabbit-IgG conjugated with alkaline phosphatase (1:2000 dilution) in TBS-Tween containing BSA as above. Finally, after further washing, the bound antibodies were detected by adding an alkaline phosphatase substrate solution (100 μl) containing 2 mg/ml p-nitrophenyl phosphate, 0.1 mM ZnCl2, 1 mM MgCl2 and 100 mM glycine pH 10. The plates were left at room temperature for 15-120 minutes depending on the protein tested. The enzyme reaction was stopped by addition of 50 μl of 2M NaOH. The absorbance of the released p-nitrophenol was measured at 405 nm with a Titertek Multiscan/MCC 340 (Flow Lab. Ltd.). The amounts of HSPG bound were determined by the net OD405 after substracting the OD from the blank wells in which the HSPG incubation step was omitted. When the actual amounts of HSPG bound were to be calculated, a set of standards (0.05-50 ng/well) of HSPG in NaHCO3 buffer were pre-coated into wells on the same plates as the test proteins. The incubations proceeded as described above omitting the incubation of the HSPG solution with the HSPG standard coated wells. The actual amounts of HSPG bound to the test proteins were calculated from the OD405 standard curve produced by the HSPG standards using a Titersoft II E.J.A. software program (Flow Lab. Ltd.).
(§3) Heparin and dextran sulfate, respectively, were each used as test compounds to determine their effect on the HSPG binding to AAP forms and fibronectin. Various concentrations of heparin or dextran sulfate were added together with a constant amount of HSPG to wells coated with AAPs for fibronectin.

[2] = biological target: T2, HSPG binding to AAP751 /s (Homo sapiens, UniProt P05067); test: Effect of test compounds on intact HSPG binding to immobilized AAP751 /s (ELISA); details: for HSPG binding, % of control: AAP751
T2 construct: maintained the entire extracellular portion of the AAP; made in house; host or cells: insect cells (recombinant baculovirus)
Method: as §1, §2, §3

[3] = test system: HSPG binding to fibronectin; test: Effect of test compounds on intact HSPG binding to immobilized fibronectin (ELISA); design: species or system bovine; details: for HSPG binding, % of control: fibronectin
Sequence of HSPG binding to fibronectin (P07589 with tags, fused parts or gaps DEL1267-1357/DEL1723-1812 limits assumed): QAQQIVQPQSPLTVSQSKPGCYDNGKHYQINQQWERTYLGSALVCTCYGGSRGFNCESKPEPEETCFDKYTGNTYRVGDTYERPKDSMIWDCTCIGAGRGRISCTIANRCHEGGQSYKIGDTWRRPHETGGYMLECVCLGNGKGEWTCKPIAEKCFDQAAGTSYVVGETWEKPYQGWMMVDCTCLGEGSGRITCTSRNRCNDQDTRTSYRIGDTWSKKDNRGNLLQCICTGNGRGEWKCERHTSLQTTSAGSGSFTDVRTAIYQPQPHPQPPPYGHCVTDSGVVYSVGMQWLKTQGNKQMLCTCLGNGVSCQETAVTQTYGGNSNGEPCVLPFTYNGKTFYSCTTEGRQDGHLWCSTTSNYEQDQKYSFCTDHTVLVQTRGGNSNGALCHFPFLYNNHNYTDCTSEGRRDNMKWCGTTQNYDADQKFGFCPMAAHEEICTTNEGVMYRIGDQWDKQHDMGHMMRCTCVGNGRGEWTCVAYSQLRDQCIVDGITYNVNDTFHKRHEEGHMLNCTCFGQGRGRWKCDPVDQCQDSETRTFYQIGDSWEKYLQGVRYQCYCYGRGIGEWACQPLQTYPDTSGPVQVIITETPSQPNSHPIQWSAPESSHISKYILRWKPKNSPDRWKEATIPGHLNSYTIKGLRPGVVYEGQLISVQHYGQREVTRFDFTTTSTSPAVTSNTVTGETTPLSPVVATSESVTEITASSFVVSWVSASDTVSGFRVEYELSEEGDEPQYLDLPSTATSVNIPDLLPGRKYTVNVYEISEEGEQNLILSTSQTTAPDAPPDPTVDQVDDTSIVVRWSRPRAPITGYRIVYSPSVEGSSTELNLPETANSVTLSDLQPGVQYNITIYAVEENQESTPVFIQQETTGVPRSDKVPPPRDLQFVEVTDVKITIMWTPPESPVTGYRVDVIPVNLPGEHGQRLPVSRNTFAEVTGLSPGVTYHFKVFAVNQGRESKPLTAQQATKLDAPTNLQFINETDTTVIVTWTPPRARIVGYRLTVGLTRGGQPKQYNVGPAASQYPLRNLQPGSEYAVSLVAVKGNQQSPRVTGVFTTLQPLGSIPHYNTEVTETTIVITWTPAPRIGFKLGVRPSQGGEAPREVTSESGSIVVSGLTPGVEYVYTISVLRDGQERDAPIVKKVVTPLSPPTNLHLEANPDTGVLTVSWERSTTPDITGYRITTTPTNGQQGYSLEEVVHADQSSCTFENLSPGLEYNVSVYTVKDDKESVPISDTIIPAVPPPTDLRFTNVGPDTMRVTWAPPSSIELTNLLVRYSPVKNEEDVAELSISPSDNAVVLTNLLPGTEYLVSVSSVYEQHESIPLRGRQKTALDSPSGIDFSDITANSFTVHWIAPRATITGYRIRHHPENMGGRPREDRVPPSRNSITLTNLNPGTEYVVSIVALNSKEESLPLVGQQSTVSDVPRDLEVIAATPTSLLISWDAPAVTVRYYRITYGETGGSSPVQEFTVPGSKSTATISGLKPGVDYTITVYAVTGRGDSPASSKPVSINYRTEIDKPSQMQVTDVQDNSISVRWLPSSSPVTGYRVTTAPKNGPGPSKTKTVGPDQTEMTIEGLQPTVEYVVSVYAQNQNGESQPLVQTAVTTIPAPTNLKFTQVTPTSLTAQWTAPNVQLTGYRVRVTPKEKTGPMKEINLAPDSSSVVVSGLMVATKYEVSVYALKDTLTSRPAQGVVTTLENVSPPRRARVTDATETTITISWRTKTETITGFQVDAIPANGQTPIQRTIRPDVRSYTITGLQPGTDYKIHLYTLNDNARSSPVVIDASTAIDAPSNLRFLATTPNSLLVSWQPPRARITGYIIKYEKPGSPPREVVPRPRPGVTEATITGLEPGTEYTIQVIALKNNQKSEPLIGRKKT
Method: as §1
Fibronectin (from bovine plasma), heparin (grade II from porcine intestinal mucosa, average molecular weight=[…]), heparan sulfate, chondroitin sulfate, dextran sulfate, BSA, and alkaline phosphatase substrate were obtained from Sigma, St. Louis, Mo. Alkaline phosphatase conjugated goat anti-rabbit IgG was obtained from Boehringer-Manneheim, and heparitinase from ICN Biochemicals.
as §2, §3

[4] = biological target: HSPG core protein binding to AAP695 /s; test: Effect of heparin on HSPG core protein binding to immobilized AAP695 /s (ELISA); details: heparin 400 μg/ml
Method: The assay used in studying the interaction between HSPG and protein ligands was an ELISA technique. Briefly, polystyrene micro-titer plates (Linbro, Flow Lab Inc.) were coated with a 100 μl solution, containing 1 μg/ml of the protein of interest (one of the three forms of AAP or fibronectin) in 20 mM NaHCO3 buffer pH 9.6. After incubation overnight at 4° C., the plates were rinsed with 0.15M NaCl, 20 mM Tris-Cl pH 7.5 (TBS). The plates were then incubated with 150 μl of 1% BSA in TBS for 2 hours at 37° C. to block the residual hydrophobic surface on the wells. After rinsing with TBS containing 0.05% (w/v) Tween 20 (TBS-Tween), 100 μl of various concentrations of HSPG in TBS-Tween were added. […] Finally, after further washing, the bound antibodies were detected by adding an alkaline phosphatase substrate solution (100 μl) containing 2 mg/ml p-nitrophenyl phosphate, 0.1 mM ZnCl2, 1 mM MgCl2 and 100 mM glycine pH 10. […] The absorbance of the released p-nitrophenol was measured at 405 nm with a Titertek Multiscan/MCC 340 (Flow Lab. Ltd.). The amounts of HSPG bound were determined by the net OD405 after substracting the OD from the blank wells in which the HSPG incubation step was omitted. When the actual amounts of HSPG bound were to be calculated, a set of standards (0.05-50 ng/well) of HSPG in NaHCO3 buffer were pre-coated into wells on the same plates as the test proteins. […]

[5] = test compound 500 μg/ml (Table II)

heparin
mode of inhibition of HSPG binding to AAP695 /s [1]: probably competitive | Activity: binding of intact HSPG, percentage ± SD of control ([1]; AAP695 /S, addition 500 μg/ml, HSPG 2 μg/ml): 10.2 ± 5.2% | HSPG binding, % of control ([1]; test compound 31.2 μg/ml): 29% | HSPG binding, % of control ([1]; test compound 62.5 μg/ml): 26% | HSPG binding, % of control ([1]; test compound 125 μg/ml): 16% | HSPG binding, % of control ([1]; test compound 250 μg/ml): 10% | HSPG binding, % of control [1, 5]: 7% | HSPG binding, % of control ([1]; test compound 1000 μg/ml): 3% | HSPG binding, % of control ([1]; test compound 2000 μg/ml): 2% | HSPG binding, % of control ([1]; test compound 4000 μg/ml): 1% | Ki ([1]; calculated from Kdapp = Kdcon (1+[I]/Ki), heparin 400 μg/ml, AAP695 /s): ~5.5 µM | factor by which HSPG affinity for AAP-695/s is reduced ([1]; heparin 400 μg/ml): 5-10 | increase of Kd of intact HSPG for AAP695 /s in presence of heparin ([1]; heparin 400 μg/ml): approximately four-fold | inhibition of HSPG binding to AAP695 /s ([1]; test compound 62.5 μg/ml): 75% | mode of inhibition of HSPG binding to AAP751 /s [2]: noncompetitive | Activity: binding of intact HSPG, percentage ± SD of control ([2]; AAP751 /S, addition 500 μg/ml, HSPG 2 μg/ml): 69 ± 12% | HSPG binding, % of control ([2]; test compound 31.2 μg/ml): 89% | HSPG binding, % of control ([2]; test compound 62.5 μg/ml): 75% | HSPG binding, % of control ([2]; test compound 125 μg/ml): 84% | HSPG binding, % of control ([2]; test compound 250 μg/ml): 82% | HSPG binding, % of control [2, 5]: 54% | HSPG binding, % of control ([2]; test compound 1000 μg/ml): 60% | HSPG binding, % of control ([2]; test compound 2000 μg/ml): 53% | HSPG binding, % of control ([2]; test compound 4000 μg/ml): 58% | effect of heparin on Kd of HSPG when using AAP751 /s ([2]; heparin 400 μg/ml, intact HSPG or core protein): No such effect | mode of inhibition of HSPG binding to fibronectin [3]: noncompetitive | Activity: binding of intact HSPG, percentage ± SD of control ([3]; Fibronectin, addition 500 μg/ml, HSPG 2 μg/ml): 71.7 ± 4.9% | HSPG binding, % of control ([3]; test compound 31.2 μg/ml): 93% | HSPG binding, % of control ([3]; test compound 62.5 μg/ml): 91% | HSPG binding, % of control ([3]; test compound 125 μg/ml): 73% | HSPG binding, % of control ([3]; test compound 250 μg/ml): 85% | HSPG binding, % of control [3, 5]: 79% | HSPG binding, % of control ([3]; test compound 1000 μg/ml): 79% | HSPG binding, % of control ([3]; test compound 2000 μg/ml): 77% | HSPG binding, % of control ([3]; test compound 4000 μg/ml): 74% | Ki ([4]; calculated from Kdapp = Kdcon (1+[I]/Ki), AAP695 /s): ~1.6 µM | increase of Kd of HSPG core protein for AAP695 /s in presence of heparin [4]: approximately ten-fold
